Where two headings read alike, the source gives them in different places.
Molecular target: T1, hT1R2/T1R3 taste receptor (Homo sapiens, UniProt Q7RTX0+Q8TE23)
T1 sequence (Q8TE23 20-839): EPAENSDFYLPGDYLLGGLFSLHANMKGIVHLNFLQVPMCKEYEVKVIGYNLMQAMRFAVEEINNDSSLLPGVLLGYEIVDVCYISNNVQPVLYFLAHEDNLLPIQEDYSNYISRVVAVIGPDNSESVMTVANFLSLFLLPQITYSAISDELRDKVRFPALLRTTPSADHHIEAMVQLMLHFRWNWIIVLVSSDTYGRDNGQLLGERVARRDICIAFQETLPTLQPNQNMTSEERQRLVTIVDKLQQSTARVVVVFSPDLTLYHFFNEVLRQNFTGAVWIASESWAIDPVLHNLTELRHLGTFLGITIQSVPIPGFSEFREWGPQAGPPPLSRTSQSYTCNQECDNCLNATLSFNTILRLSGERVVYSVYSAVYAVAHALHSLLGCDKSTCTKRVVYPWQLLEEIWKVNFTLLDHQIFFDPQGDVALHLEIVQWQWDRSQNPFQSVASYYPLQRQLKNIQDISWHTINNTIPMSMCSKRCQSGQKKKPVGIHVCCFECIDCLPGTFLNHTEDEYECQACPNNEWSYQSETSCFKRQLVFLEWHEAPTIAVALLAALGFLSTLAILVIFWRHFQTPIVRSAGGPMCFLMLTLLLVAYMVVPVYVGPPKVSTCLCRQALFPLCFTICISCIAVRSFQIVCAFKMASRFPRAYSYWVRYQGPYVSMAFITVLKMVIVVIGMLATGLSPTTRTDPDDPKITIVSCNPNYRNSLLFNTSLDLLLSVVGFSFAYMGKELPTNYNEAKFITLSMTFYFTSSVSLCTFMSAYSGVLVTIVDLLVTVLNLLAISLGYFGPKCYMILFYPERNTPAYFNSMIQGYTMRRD
T1 sequence (Q7RTX0 21-852): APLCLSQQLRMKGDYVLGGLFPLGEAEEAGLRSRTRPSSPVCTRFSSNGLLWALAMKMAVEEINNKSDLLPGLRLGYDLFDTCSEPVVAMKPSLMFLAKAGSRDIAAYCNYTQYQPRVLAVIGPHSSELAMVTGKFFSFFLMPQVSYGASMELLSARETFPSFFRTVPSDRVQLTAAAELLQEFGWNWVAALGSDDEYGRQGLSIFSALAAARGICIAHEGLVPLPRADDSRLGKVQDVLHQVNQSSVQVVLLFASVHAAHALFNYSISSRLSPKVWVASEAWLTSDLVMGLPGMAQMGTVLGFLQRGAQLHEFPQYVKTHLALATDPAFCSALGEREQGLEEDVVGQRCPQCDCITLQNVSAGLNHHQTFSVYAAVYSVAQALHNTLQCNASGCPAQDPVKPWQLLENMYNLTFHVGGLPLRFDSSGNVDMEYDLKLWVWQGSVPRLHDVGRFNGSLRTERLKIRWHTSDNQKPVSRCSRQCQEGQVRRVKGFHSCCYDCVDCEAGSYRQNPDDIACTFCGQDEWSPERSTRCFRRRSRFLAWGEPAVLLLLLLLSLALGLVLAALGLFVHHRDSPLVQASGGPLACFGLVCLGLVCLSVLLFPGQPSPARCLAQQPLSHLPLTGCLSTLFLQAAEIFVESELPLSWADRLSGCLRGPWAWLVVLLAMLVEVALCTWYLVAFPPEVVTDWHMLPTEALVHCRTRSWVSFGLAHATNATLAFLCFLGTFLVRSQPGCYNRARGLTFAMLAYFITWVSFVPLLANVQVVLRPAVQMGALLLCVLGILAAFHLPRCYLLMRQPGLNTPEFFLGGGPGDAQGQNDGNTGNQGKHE
Assay: agonist activity against the hT1R2/T1R3 taste receptor (sweet receptor based assay)
Format: cell-based
Protocol: Compounds described in this application show moderate to potent agonist effect on the sweet receptor based assay. Potencies (EC50 values, e.g. see Tables 1-3) for agonist activity were measured against the hT1R2/T1R3 taste receptor. FIG. 1 exemplifies the data generated during the screening to determine EC50 values.

[1] = agonist activity, hT1R2/T1R3, read-out: Sweet EC50

Row | Compound | EC50 [1] [µM] | EC50 [µM]
1 | COC(=O)c1ccccc1N1CCN(C(C)(C)C(=O)NCC(C)C)CC1 [Compound 49] | > 10 | 
2 | CC(C)CNC(=O)C(C)(C)N1CCC(CO)(c2ccccc2)CC1 [Compound 119] | > 10 | 
3 | CC(C)CNC(=O)C(C)(C)N1CCN(c2ccccc2F)CC1 [Compound 2, 2-(4-(2-fluorophenyl)piperazin-1-yl)-N-isobutyl-2-methylpropanamide] | 6.8 | 
4 | CC(C)[C@@H](C)NC(=O)C(C)(C)N1CCC(c2ccccc2)CC1 [Compound 86] | 4.4 | 
5 | Cc1cccc(C2=CCN(C(C)(C)C(=O)NCC(C)C)CC2)c1F [Compound 65] | 2.9 | 
6 | CC(C)CNC(=O)C(C)(C)N1CCN(c2ccccn2)CC1 [Compound 53] | > 10 | 
7 | CC(C)CNC(=O)C(C)(C)N1CCN(c2c(F)cccc2F)CC1 [Compound 42] | > 10 | 
8 | Cc1cccc(N2CCN(C(C)(C)C(=O)NCC(C)C)CC2)c1F [Compound 36] | 2.4 | 
9 | Cc1cccc(N2CCN(C(C)(C)C(=O)NC3CC3)CC2)c1C [Compound 1, N-cyclopropyl-2-(4-(2,3-dimethylphenyl)piperazin-1-yl)-2-methylpropanamide] | 4.3 | 
10 | CC(C)CNC(=O)C(C)(C)N1CCC(c2ccccc2N(C)C)CC1 [Compound 101] | > 10 | 
11 | COCc1c(F)cccc1N1CCN(C(C)(C)C(=O)NCC(C)C)CC1 [Compound 5, 2-(4-(3-fluoro-2-(methoxymethyl)phenyl)piperazin-1-yl)-N-isobutyl-2-methylpropanamide] | 2.1 | 
12 | CC(C)CNC(=O)C(C)(C)N1CC=C(c2cccc(F)c2)CC1 [Compound 62] | 3 | 
13 | COc1cccc(C2=CCN(C(C)(C)C(=O)NCC(C)C)CC2)c1F [Compound 68] | > 10 | 
14 | Cc1cccc(N2CCN(C(C)(C)C(=O)NCCN(C)C)CC2)c1C [Compound 23] | > 10 | 
15 | CC(C)(C(=O)NC1CC1)N1CCC(C#N)(c2cccc(F)c2F)CC1 [Compound 128] |  | 1.7
16 | CC(C)CNC(=O)C(C)(C)N1CCC(c2cccc(CN(C)C)c2)CC1 [Compound 103] | > 10 | 
17 | Cc1cccc(C)c1N1CCN(C(C)(C)C(=O)NCC(C)C)CC1 [Compound 40] | > 10 | 
18 | Cc1cccc(N2CCN(C(C)(C)C(=O)NCC(C)(C)O)CC2)c1C [Compound 25] | > 10 | 
19 | CC(C)CNC(=O)CN1CCC(c2ccccc2)CC1 [Compound 89] | 6.7 | 
20 | CC(C)CNC(=O)C(C)(C)N1CCC(c2ccccc2C(=O)N(C)C)CC1 [Compound 105] | > 10 | 
21 | Cc1cccc(N2CCN(C(C)(C)C(=O)NCCc3ccccc3)CC2)c1C [Compound 27] | > 10 | 

Row | Compound | EC50 [1] [µM] | EC50 [µM]
22 | Cc1cccc(N2CCN(C(C)(C)C(=O)NC3CCCCC3)CC2)c1C [Compound 13] | 9.4 | 
23 | Cc1cccc(N2CCN(C(C)(C)C(=O)NCC3CCCCCC3)CC2)c1C [Compound 17] | > 10 | 
24 | CC(C)CNC(=O)C(C)(C)N1CCN(c2ccc(F)cc2F)CC1 [Compound 37] | > 10 | 
25 | Cc1ccncc1C1=CCN(C(C)(C)C(=O)NCC(C)C)CC1 [Compound 75] | > 10 | 
26 | COCCNC(=O)C(C)(C)N1CCN(c2cccc(C)c2C)CC1 [Compound 22] | > 10 | 
27 | CC(C)CNC(=O)C(C)(C)N1CCC2(CC1)OCc1ccccc12 [Compound 121] | 5.6 | 
28 | CC(C)CNC(=O)C(C)(C)N1CCC(c2cccc(F)c2)CC1 [Compound 96] | 0.6 | 
29 | CC(C)CNC(=O)C(C)(C)N1CCN(c2cccc(F)c2CO)CC1 [Compound 51, 2-(4-(3-fluoro-2-(hydroxymethyl)phenyl)piperazin-1-yl)-N-isobutyl-2-methylpropanamide] | > 10 | 
30 | CC(C)CNC(=O)C(C)(C)N1CCN(c2ccccc2)CC1 [Compound 34] | > 10 | 
31 | COCc1cccc(N2CCN(C(C)(C)C(=O)NCC(C)C)CC2)c1F [Compound 4, 2-(4-(2-fluoro-3-(methoxymethyl)phenyl)piperazin-1-yl)-N-isobutyl-2-methylpropanamide] | 2.1 | 
32 | CCC(CC)NC(=O)C(C)(C)N1CCN(c2cccc(C)c2C)CC1 [Compound 20] | 5.6 | 
33 | CC(C)CNC(=O)C(C)(C)N1CCC(C)(c2ccccc2)CC1 [Compound 118] | 3.7 | 
34 | CC(C)(C(=O)NC1CCCC1)N1CCC(c2ccccc2)CC1 [Compound 84] | 2.5 | 
35 | COCc1ccc(C2CCN(C(C)(C)C(=O)NCC(C)C)CC2)c(F)c1 [Compound 102] | > 10 | 
36 | Cc1cccc(C2CCN(C(C)(C)C(=O)NCC(C)C)CC2)n1 [Compound 109] | 5.1 | 
37 | COc1cccc(C2CCN(C(C)(C)C(=O)NCC(C)C)CC2)c1F [Compound 100] | 1.4 | 
38 | CCCNC(=O)C(C)(C)N1CCN(c2cccc(C)c2C)CC1 [Compound 9] | 4.2 | 
39 | CC(C)CNC(=O)C(C)(C)N1CCN(c2ccccc2C(F)(F)F)CC1 [Compound 50] | > 10 | 
40 | CC(C)CNC(=O)C(C)(C)N1CCC(O)(c2ccccc2)CC1 [Compound 123] | > 10 | 
41 | Cc1cccc(N2CCN(C(C)(C)C(=O)NC(C)(C)CO)CC2)c1C [Compound 24] | > 10 | 
42 | CC(C)CNC(=O)C(C)(C)N1CCc2ccccc2C1 [Compound 116] | 3.8 | 

Row | Compound | EC50 [1] [µM] | EC50 [µM]
43 | COCc1ccccc1N1CCN(C(C)(C)C(=O)NCC(C)C)CC1 [Compound 47] | 6.8 | 
44 | COCc1cccc(C2=CCN(C(C)(C)C(=O)NCC(C)C)CC2)c1 [Compound 63] | > 10 | 
45 | Cc1cccc(N2CCN(C(C)(C)C(=O)NCC3CCCC3)CC2)c1C [Compound 15] | 6.9 | 
46 | COCc1ccccc1C1=CCN(C(C)(C)C(=O)NCC(C)C)CC1 [Compound 64] | > 10 | 
47 | Cc1ccc(C)c(N2CCN(C(C)(C)C(=O)NCC(C)C)CC2)c1 [Compound 38] | > 10 | 
48 | Cc1cccc(N2CCN(C(C)C(=O)NCC(C)C)CC2)c1C (centres unmarked) [Compound 29] | 1.4 | 
49 | CC(C)CNC(=O)C(C)(C)N1CCC(c2ccccc2)CC1 [Compound 80, N-isobutyl-2-methyl-2-(4-phenylpiperidin-1-yl)propanamide] | 0.7 | 
50 | COCc1cccc(C2CCN(C(C)(C)C(=O)NCC(C)C)CC2)c1 [Compound 111] | 3.1 | 
51 | Cc1cccc(N2CCN(C(C)(C)C(=O)NCC(C)(C)C)CC2)c1C [Compound 18] | > 10 | 
52 | Cc1cccc(C2=CCN(C(C)(C)C(=O)NCC(C)C)CC2)n1 [Compound 77] | > 10 | 
53 | CC(C)CNC(=O)C1(N2CCC(c3ccccc3)CC2)COC1 [Compound 112] | 4.8 | 
54 | CC(C)(C(=O)NC1CC1)N1CCC(c2ccccc2)CC1 [Compound 82] | 10.4 | 
55 | CC(C)CNC(=O)C(C)(C)N1CC=C(c2cccc(CN(C)C)c2)CC1 [Compound 71] | > 10 | 
56 | Cc1cccc(N2CCN(C(C)C(=O)NCC(C)C)CC2)c1C (centres unmarked) [Compound 11] | 1.4 | 
57 | Cc1cccc(C2CCN(C(C)(C)C(=O)NCC(C)C)CC2)c1F [Compound 98] | 0.9 | 
58 | Cc1cccc(N2CCN(C(C)(C)C(=O)NCC3CC3)CC2)c1C [Compound 14] | 5 | 
59 | Cc1ccccc1C1=CCN(C(C)(C)C(=O)NCC(C)C)CC1 [Compound 58] | 5.4 | 
60 | Cc1ccccc1N1CCN(C(C)(C)C(=O)NCC(C)C)CC1 [Compound 46] | 4.3 | 
61 | CC(C)CNC(=O)C(C)(C)N1CCN(c2cnccn2)CC1 [Compound 54] | > 10 | 
62 | CCC(CC)CNC(=O)C(C)(C)N1CCN(c2cccc(C)c2C)CC1 [Compound 21] | > 10 | 
